Data set [1] in a line: Solubility of mefenamic acid in water and various aqueous solutions. The settings on record: for solubility: aqueous solution containing polyvinylpyrrolidone and basic substance. Type of data set: physicochemical.
For data set [2] the following is noted: in words, background statement; cited from earlier work.

For `Cc1cccc(Nc2ccccc2C(=O)O)c1C` [メフェナム酸, N−2,3−キシリルアントラニル酸], the solubility result in data set [1] is listed as “高い溶解性を示し”; in data set [1] (with nonionic surfactant of HLB 14-15 added) it was “溶解性が飛躍的に向上する”. In data set [1] (aqueous solution of polyvinylpyrrolidone and surfactant mixture, approximately pH 7.0-8.0), the solubility and stability entry was “良好な溶解性と安定性を示す”. In addition, the solubility in water entry in data set [2] is listed as “水に極めて溶けにくく”.

The values above are taken from JPH1029937A, “メフェナム酸水溶液製剤” (KOBAYASHI SEIYAKU KOGYO KK, priority 1996, dated 1997).
